Assay results as given in patent US20230203060A1 (GENFLEET THERAPEUTICS (SHANGHAI) INC., priority 2020, published 2023).

test system: A549 cells (KRAS G12S mutant); test: Cell proliferation inhibition experiment, 3D spheroid, CellTiter-Glo, A549; assay type: cell-based, human; conditions: A549 (KRAS G12S mutant) 3D spheroid, 5 days with compound, CellTiter-Glo; read-out: A549 IC50
Method in brief: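 CellTiter-Glo luminescence after 5 days' compound treatment (3.16-fold series, 0.1% DMSO) of overnight-formed spheroids in 2% FBS medium: H358 seeded at 800 cells/well in RPMI-1640, A549 at 400 cells/well in F-12K. IC50 derived by four-parameter fit of inhibition normalized to DMSO control and blank.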

Row | IC50 [µM] | SMILES
1 | 2.75 | C=CC(=O)N1CCN2C(=O)c3c(N4C[C@H](N(C)C)CC4(C)C)nc(-c4ccccc4)c(Cl)c3OC[C@H]2C1 (single isomer, unassigned) [Z655-2]
2 | 9.32 | C=CC(=O)N1CCN2C(=O)c3c(N4CC(N(C)C5COC5)CC4(C)C)nc(-c4c(O)cccc4F)c(Cl)c3OC[C@H]2C1 (single isomer, unassigned) [Z331-2]
3 | 7.1 | C=CC(=O)N1CCN2C(=O)c3c(N4CCN(C)C(C)C4C)nc(-c4c(O)cccc4F)c(Cl)c3OC[C@H]2C1 (stereo partly drawn) [Z308a, (6aR)-8-acryloyl-4-chloro-3-(2-fluoro-6-hydroxyphenyl)-1-(2,3,4-trimethylpiperazin-1-yl)-6,6a,7,8,9,10-hexahydro-12H-pyrazino[2,1-c]pyrido[3,4-f][1,4]oxazepin-12-one]
4 | 9.08 | C=CC(=O)N1CCN2C(=O)c3c(N4C[C@H](N(C)CCF)CC4(C)C)nc(-c4ccccc4F)c(Cl)c3OC[C@H]2C1 (single isomer, unassigned) [Z660-2]
5 | > 10 | C=CC(=O)N1CCN2C(=O)c3c(N4CCN(C)C[C@@H]4C)nc(-c4c(O)cccc4Cl)c(Cl)c3OC[C@H]2C1 (single isomer, unassigned) [Z455-2]
6 | > 30 | C=CC(=O)N1CCN2C(=O)c3c(C4NCCN5C(=O)CCC45C)nc(-c4c(O)cccc4F)c(Cl)c3OC[C@H]2C1 (stereo partly drawn) [Z337, (6aR)-8-acryloyl-4-chloro-3-(2-fluoro-6-hydroxyphenyl)-1-(8a-methylhexahydropyrrolo[1,2-a]pyrazin-6 (2H)-one-1-yl)-6,6a,7,8,9,10-hexahydro-12H-pyrazino[2,1-c]pyrido[3,4-f][1,4]oxazepin-12-one]
7 | 4.18 | C=CC(=O)N1CCN2C(=O)c3c(N4CCN(C)C[C@@H]4C)nc(-c4c(O)cccc4Cl)c(Cl)c3OC[C@H]2C1 (single isomer, unassigned) [Z455-1]
8 | 5.46 | C=CC(=O)N1CCN2C(=O)c3c(N4CC(N(C)CC(F)F)CC4(C)C)nc(-c4ccccc4F)c(Cl)c3OC[C@H]2C1 (stereo partly shown) [Z659]
9 | 4.56 | C=CC(=O)N1CCN2C(=O)c3c(N4CC(N5CCOCC5)CC4(C)C)nc(-c4ccccc4F)c(Cl)c3OC[C@H]2C1 (single isomer, unassigned) [Z468-2]

same assay, conditions: Homo sapiens, A549, 120 h, A549 (KRAS G12S mutant) 3D spheroid, 5 days with compound, CellTiter-Glo; read-out: A549 IC50

Row | IC50 [µM] | SMILES
10 | > 1 | C=CC(=O)N1CCN2C(=O)c3c(N4C[C@@H](O)CC4(C)C)nc(-c4c(O)cccc4F)c(Cl)c3OC[C@H]2C1 (single isomer, unassigned) [Z81]
11 | > 30 | C=CC(=O)N1CCN2C(=O)c3c(N4CCN(CCO)C[C@@H]4C)nc(-c4c(O)cccc4F)c(Cl)c3OC[C@H]2C1 [Z257, (6aR)-8-acryloyl-4-chloro-3-(2-fluoro-6-hydroxyphenyl)-1-((S)-4-(2-hydroxyethyl)-2-methylpiperazin-1-yl)-6,6a,7 ,8,9,10-hexahydro-12H-pyrazino[2,1-c]pyrido[3,4-f][1,4]oxazepin-12-one]
12 | > 1 | C=CC(=O)N1CCN2C(=O)c3c(N4CCOC5CC54)nc(-c4c(O)cccc4F)c(Cl)c3OC[C@H]2C1 (stereo partly drawn) [Z76, (6aR)-8-acryloyl-4-chloro-1-(2-oxa-5-azabicyclo[4.1.0]heptan-5-yl)-3-(2-fluoro-6-hydroxyphenyl)-6,6a,7,8,9,10-hexahydro-12H-pyrazino[2,1-c]pyrido[3,4-f][1,4]oxazepin-12-one]
13 | > 1 | C=CC(=O)N1CCN2C(=O)c3c(NC(C)C)nc(-c4c(O)cccc4F)c(Cl)c3OC[C@H]2C1 [Z75, (6aR)-8-acryloyl-4-chloro-1-(isopropylamino)-3-(2-fluoro-6-hydroxyphenyl)-6,6a,7,8,9,10-hexahydro-12H-pyrazino[2,1-c]pyrido[3,4-f][1,4]oxazepin-12-one]
14 | > 1 | C=CC(=O)N1CCN2C(=O)c3c(N4C[C@H](O)CC4(C)C)nc(-c4c(O)cccc4F)c(Cl)c3OC[C@H]2C1 (single isomer, unassigned) [Z82]
15 | > 30 | C=CC(=O)N1CCN2C(=O)c3c(OC4CCN(C)CC4)nc(-c4c(O)cccc4F)c(Cl)c3OC[C@H]2C1 [Z61, (6aR)-8-acryloyl-4-chloro-3-(2-fluoro-6-hydroxyphenyl)-1-((1-methylpiperidin-4-yl)oxy)-6,6a,7,8,9,10-hexahydro-12H-pyrazino[2,1-c]pyrido[3,4-f][1,4]oxazepin-12-one]
16 | 8.89 | C=CC(=O)N1CCN2C(=O)c3c(N4CCN(C)C(C)(C)C4)nc(-c4c(O)cccc4F)c(Cl)c3OC[C@H]2C1 [Z261, (6aR)-8-acryloyl-4-chloro-3-(2-fluoro-6-hydroxyphenyl)-1-(3,3,4-trimethylpiperazin-1-yl)-6,6a,7,8,9,10-hexahydro-12H-pyrazino[2,1-c]pyrido[3,4-f][1,4]oxazepin-12-one]
17 | 9.48 | C=CC(=O)N1CCN2C(=O)c3c(N4CCN(C)[C@H](C)C4)nc(-c4c(O)cccc4F)c(Cl)c3OC[C@H]2C1 [Z235, (6aR)-8-acryloyl-4-chloro-1-((R)-3,4-dimethylpiperazin-1-yl)-3-(2-fluoro-6-hydroxyphenyl)-6,6a,7,8,9,10-hexahydro-12H-pyrazino[2,1-c]pyrido[3,4-f][1,4]oxazepin-12-one]
18 | 27.8 | C=CC(=O)N1CCN2C(=O)c3c(N4C[C@@H](O)C[C@@H]4C)nc(-c4c(O)cccc4F)c(Cl)c3OC[C@H]2C1 [Z260, (6aR)-8-acryloyl-4-chloro-3-(2-fluoro-6-hydroxyphenyl)-1-((2S,4S)-4-hydroxy-2-methylpyrrolidin-1-yl)-6,6a,7,8,9,10-hexahydro-12H-pyrazino[2,1-c]pyrido[3,4-f][1,4]oxazepin-12-one]
19 | > 5 | C=CC(=O)N1CCN2C(=O)c3c(N4CC[C@@H]4C)nc(-c4c(O)cccc4F)c(Cl)c3OC[C@H]2C1 [Z68, (6aR)-8-acryloyl-1-((S)-2-methylazetidin-1-yl)-4-chloro-3-(2-fluoro-6-hydroxyphenyl)-6,6a,7,8,9,10-hexahydro-12H-pyrazino[2,1-c]pyrido[3,4-f][1,4]oxazepin-12-one]

More lines, now with the values behind:

Row | SMILES | IC50 [µM]
20 | C=CC(=O)N1CCN2C(=O)c3c(Nc4c(C)ccnc4C(C)C)nc(-c4c(O)cccc4F)c(Cl)c3OC[C@H]2C1 [Z5, (6aR)-8-acryloyl-4-chloro-3-(2-fluoro-6-hydroxyphenyl)-1-((2-isopropyl-4-methylpyridin-3-yl)amino)-6,6a,7,8,9,10-hexahydro-12H-pyrazino[2,1-c]pyrido[3,4-f][1,4]oxazepin-12-one] | 4.68
21 | C=CC(=O)N1CCN2C(=O)c3c(N4CC(O)CC4(C)C)nc(-c4c(O)cccc4F)c(F)c3OC[C@H]2C1 (stereo partly drawn) [Z256, (6aR)-8-acryloyl-4-fluoro-3-(2-fluoro-6-hydroxyphenyl)-1-(4-hydroxy-2,2-dimethylpyrrolidin-1-yl)-6,6a,7,8,9,10-hexahydro-12H-pyrazino[2,1-c]pyrido[3,4-f][1,4]oxazepin-12-one] | 13.9
22 | C=CC(=O)N1CCN2C(=O)c3c(N4CC(=O)N(C)CC4C)nc(-c4c(O)cccc4F)c(Cl)c3OC[C@H]2C1 (stereo partly drawn) [Z221, (6aR)-8-acryloyl-4-chloro-1-(2,4-dimethyl-5-oxopiperazin-1-yl)-3-(2-fluoro-6-hydroxyphenyl)-6,6a,7,8,9,10-hexahydro-12H-pyrazino[2,1-c]pyrido[3,4-f][1,4]oxazepin-12-one] | 20.1
23 | C=CC(=O)N1CCN2C(=O)c3c(N4CC(N(C)C5COC5)CC4(C)C)nc(-c4c(O)cccc4F)c(Cl)c3OC[C@H]2C1 (single isomer, unassigned) [Z331-1] | 8.33
24 | C=CC(=O)N1CCN2C(=O)c3c(N4CC(=O)N(C)CC4C)nc(-c4c(O)cccc4F)c(Cl)c3OC[C@H]2C1 (single isomer, unassigned) [Z221-1] | > 30
25 | C=CC(=O)N1CCN2C(=O)c3c(NC(C)(C)C)nc(-c4c(O)cccc4F)c(Cl)c3OC[C@H]2C1 [Z69, (6aR)-8-acryloyl-1-(tert-butylamino)-4-chloro-3-(2-fluoro-6-hydroxyphenyl)-6,6a,7,8,9,10-hexahydro-12H-pyrazino[2,1-c]pyrido[3,4-f][1,4]oxazepin-12-one] | > 5
26 | C=CC(=O)N1CCN2C(=O)c3c(N4CCOC5(CC5)C4)nc(-c4c(O)cccc4F)c(Cl)c3OC[C@H]2C1 [Z63, (6aR)-8-acryloyl-4-chloro-1-(4-oxa-7-azaspiro[2.5]octan-7-yl)-3-(2-fluoro-6-hydroxyphenyl)-6,6a,7,8,9,10-hexahydro-12H-pyrazino[2,1-c]pyrido[3,4-f][1,4]oxazepin-12-one] | > 1
27 | C=CC(=O)N1CCN2C(=O)c3c(N(C)c4c(C)ccnc4C(C)C)nc(-c4c(O)cccc4F)c(Cl)c3OC[C@H]2C1 [Z6, (6aR)-8-acryloyl-4-chloro-3-(2-fluoro-6-hydroxyphenyl)-1-((2-isopropyl-4-methylpyridin-3-yl)(methyl)amino)-6,6a,7,8,9,10-hexahydro-12H-pyrazino[2,1-c]pyrido[3,4-f][1,4]oxazepin-12-one] | > 30

same assay, conditions: Homo sapiens, A549, 120 h, read-out: A549 IC50

Row | SMILES | IC50 [µM]
28 | C=CC(=O)N1CCN2C(=O)c3c(N4CCN(CC)C[C@@H]4C)nc(-c4c(O)cccc4F)c(Cl)c3OC[C@H]2C1 [Z236] | 9.58
